The values below are quoted from earlier work in EP1932526A1, “Morin, a new inhibitor of microbial hyaluronate lyase” (Leibniz-Institut für Naturstoff-Forschung und …, priority 2006, dated 2008).

The conditions of this data set: species and route not given.

Regarding `O=c1c(O)c(-c2ccc(O)cc2O)oc2cc(O)cc(O)c12` [morin, 2',3,4',5,7-pentahydroxyflavone], the LD50 value is on record as 555 mg/kg.
